Data taken from patent US6566140B2, “Inhibition of coagulation in blood and blood products” (University of Vermont and State Agriculture College, priority 1998, dated 2003).

Columns and labels:
[1] = tested on: tissue factor initiated clotting of platelet poor plasma; assay: plasma clotting assay using CTI (Example 3); type: biochemical, human; details: patients on stabilized coumadin therapy
Experimental: Blood was drawn directly into sterile buffered 3.8% sodium citrate tubes (Vacutainer brand, product # L10318-00, Becton-Dickinson and Co.), and the tubes were centrifuged at 4227 RCF for 3 minutes (Baxter Stat 60 bench top centrifuge). The supernatant was decanted and an automated PT was established for each patient sample. Platelet poor samples were isolated by further centrifugation for 10 minutes at 14,000 rpm, and the top two-thirds of the plasma was transferred to a Sarstedt rectic cup where it was stored for subsequent analysis at −80° C. Prior to thawing, CTI (stock concentration 1-5 mg/mL) was layered onto the frozen sample in an amount sufficient to give a final concentration of 100 μg CTI/mL plasma. Such citrated plasma containing CTI was used within 0-2 hours (stored at 2-8° C.).
Platelet poor plasma collected as described in Example 1 or 2 from either patients or normal donors, was delivered (100 μL) into a 12×75 mm disposable polystryrene tube (VWR Scientific, product #60818-361). Calcium chloride (10 μL, 300 mM CaCl2) was added, followed immediately by an amount of concentrated PSPC (prepared as described above, typical stock concentration ˜1-5 mM in HBS, pH 7.4) so that the final concentration of lipid in the mixture was […]. To initiate the reaction at zero time, 20 μL of stock tissue factor reagent (described below) was added to a final TF concentration of 1 nM. […]

[2] = tested on: tissue factor initiated clotting of recalcified citrated plasma; assay: extended plasma prothrombin time (XpPT) assay; type: biochemical, human; details: for clot time of patient plasma: patients on Coumadin therapy, 0.5 nM TF, 100 μg/ml CTI; for XpPT clot time of patient plasma (s.e.m.): patients on moderate Coumadin therapy, 0.5 nM tissue factor
Experimental: The result was a standard system of coagulation evaluation in which a plasma sample collected in 11 mM trisodium citrate was frozen (standard pathology laboratory collection system) defrosted in the presence of 100 μgm/ml corn trypsin inhibitor (final concentration) and the assay ultimately conducted described in Materials and Methods section below. The final concentrations in the tissue factor clotting sample included 100 μgm/ml CTI 30 mM CaCl2, 50 μM 75% PC:25PS vesicles and 0.5 nM tissue factor. This system is referred to as the XpPT assay.
To study the effects of heparin, 0-3 U/mL (10,000 u/mL stock) were titrated into normal, CTI (100 μg/mL), citrated plasma. Into reaction cuvettes, […] of plasma, 10 μL of 300 mM CaCl2 (final, 30 mM) and […] of 3.72 mM PCPS (final concentration, 50 μM) were added. Appropriate volumes of heparin (10,000 U/mL) were added to give 0.25, 0.5, 1.0, 1.5, 2.0, and 3.0 U/mL final concentration in 100 μL plasma. The reaction was initiated by adding 10 μL of 5 nM rTF (0.5 nM final concentration).
The assay was used along lines discussed previously except that TFPI was added (50 μg/mL stock) at 5.0, 10.0, 20.0, 60 nM final concentration and initiating with 10 μL of 5.0 nM rTF (0.5 nM).
Citrated platelet poor plasma (PPP) from a normal pool, patient cohorts, or factor V, VII, VIII and IX deficient pools was treated with 3.7 μL of 2.72 mg/mL (100 μg/mL final concentration) corn trypsin inhibitor (CTI) prior to thawing at 37° C. The thawed plasma was spun at 16,000×g (Eppendorf model 5415-C bench top centrifuge) for 10 minutes. Clot times were done by either a manual, tilt-tube method or using a Stago ST-4 detector. (Results were equivalent with each method.) For both methods test tubes made of clear polystyrene or similar clear plastic were used.
Reaction cuvettes for the ST4 clot detector were equilibrated to 37° C. (3 minutes) in the appropriate incubation chambers. Calcium equilibration was started by adding 10 μL of 300 mM CaCl2 (final, 30 mM) to 100 μL of the CTI treated citrated PPP (normal, patient or deficient) for 15 seconds followed by 1.3 μL of 3.72 mM PCPS (25:75 PC/PS) (final concentration, 50 μM) 15 seconds. The reaction was initiated by adding 10 μL of 5.0 nM rTF (final 0.5 nM TF) or 2.5 μL of 0.5 nM rTF (12.5 pM final). End point clot times were determined visually or mechanically on the ST4 using the PTT mode, no incubation, with an upper end timing limit of 999 seconds.

[3] = tested on: factor XI deficient plasma; assay: tissue factor dependence of clotting in factor XI-deficient plasma; type: biochemical, human; details: CTI, factor XI 1 U/mL
Experimental: FIG. 3 is explained as follows: clot time in factor XI deficient plasma (<1%) was measured as a function of tissue factor and […] (as described in Methods). The ordinate is shown in seconds (left-hand axis) and minutes (right-hand axis). Two curves are presented: one for factor XI deficient plasma without factor XI replacement (<1%, filled squares) and a second curve for the same plasma with 1 U/mL factor XI (25 nM, filled circles). To connect the data, smooth curves were drawn which meet near 24 pM TF. The curves become increasingly divergent as tissue factor concentration is reduced to 6 pM TF, where the difference is most pronounced.
Relipidated tissue factor reagent (see above) was rehydrated (200 μl) and diluted with HBS/calcium (2 mM) to obtain a stock reagent containing 552 pM TF and 1.10 μM PCPS. This initial stock was further diluted with PCPS (1. 10 μM) in HBS/calcium (2 mM) to obtain a set of working TF stock concentrations ranging from 17.25 to 552 pM TF at constant lipid concentration. The assay was performed according to the following protocol: Into a polystyrene tube (12×75 mm) was added 200 μL human plasma (XI-deficient, <1% XI:C; or XI-deficient with factor XI replaced at 3.5 μg/mL, 100 U/dL) and 10 μL corn trypsin inhibitor (1.15 mg/mL in HBS). […]

hemophilia C blood = assay: coagulation in hemophilia C (factor XI deficient) whole blood with factor XI replacement; type: cell-based, human; details: for clot time: CTI 48 μg/mL
Source text: Table 1 below reports the clot times for coagulation in factor XI-deficient blood, deficient blood with replacement and normal whole blood initiated at 25 and 5 pM TF with suppression of contact activation by corn trypsin inhibitor. […] Data are given for each of the experiments described in the text, along with phlebotomy control values i(in parentheses) for clotting in the absence of added tissue factor initiator. […] In all experiments, including controls, factor XIIa activity was suppressed by the addition of corn trypsin inhibitor at the level of 48 μg/mL of blood (see Methods for brief description of the experiments). For the experiments with 25 pM initiator, patient A was the donor; in the 5 pM experiments, the donor was patient B.
The protocol employed is a modification of Rand, M. D., et al. supra performed under the supervision of one of the authors (R. F. B.) at the Clinical Research Center, Fletcher Allen Health Care (Burlington, Vt.). Clotting in freshly drawn, non-anticoagulated whole blood was carried out in 32 capped polystyrene culture tubes as described, except that two series were performed per experiment (16 tubes/series). Reagents were loaded in the following amounts: corn trypsin inhibitor (all tubes, to give 50 μg/mL blood); relipidated TF (lipid:protein=2000) in HBS with 5 mM calcium (all tubes in each series except phlebotomy control tube, to give 25 or 5 pM TF/mL blood); factor VIII or factor XI (all tubes, replacement series only, to give 1 U/mL final); equivalent volume factor VIII/XI dilution buffer (HBS, pH 7.4, all tubes, deficiency series only). No more than 45 μL reagent were loaded in each tube. The zero tube of each series was pre-treated using 1 mL inhibitor cocktail (containing 50 mM EDTA and 20 mM benzamidine-HCl in HBS, pH 7.4), and 10 μL of 10 mM FPRck (diluted in 0.01 M HCl).
Patient or normal donor blood was drawn by venipuncture under a protocol approved by the Human Studies Committee at the University of Vermont, as described Rand, M. D., et al. supra. Clotting was initiated by delivery into the reagent-loaded tubes, and with periodic quenching of the tubes with inhibitor cocktail and FPRck as described above. Two series of quenched samples were obtained following reaction progress up to 20 minutes after initiation; both reducing (1% β-mercaptoethanol) and non-reducing SDS-PAGE samples were prepared from each tube (60 μL supernatant, 190 μL 2% SDS-PAGE sample solution Rand, M. D., et al. supra heated exactly 5 minutes at 98+/−2° C.). An aliquot from each tube was filtered to remove cellular contaminants for ostleonectin assays (200 μL, 0.2 μm AcroDisc, Gelman Sciences, Ann Arbor, Mich.). The remaining serum and cell pellets/clots were aliquotted to screw cap tubes, frozen and stored at −20° C. for immunoblot or immunoassay analysis.
Commercial ELISAs for fibrinopeptide A (FPA), thrombin-antithrombin-III (TAT) and platelet α-granule release (osteonectin) were performed according to manufacturers protocols, with corrections for sample dilution by added quench solution (1.00 mL) and hematocrit (typically 40% of the total blood volume). For analysis of factor Va, samples were separated on SDS-PAGE according to Laemmli, U.K. (1970) Nature 227: 680 as modified by our laboratory Rand, M. D., et al. (1996) supra. Separate gels were run for heavy chain and light chain analysis. Gels were loaded with a pre-stained molecular weight standard mixture (14-200 kDa) and dilute standards (3 samples) allowing comparison and quantitation of analyte amounts horizontally on the immunoblots. Transfer from the gel to nitrocellulose (BioRad, Hercules, Calif.) was performed for 1.5-3 hours via an SDS-free tank transfer procedure as described (Towbin H, et al. (1979) Proc Natl Acad Sci. (USA) 76: 4350 and Gallagher, S. et al. (1993) Current Protocols in Molecular Biology. J. Wiley and Sons. 10.8.1.) with subsequent immunoblot analysis according to Rand, M. D., et al.(1996) supra. […]

[4] = factor XI replacement, 25 pM TF

With `CC(=O)CC(c1ccccc1)c1c(O)c2ccccc2oc1=O` (stereo not drawn) [Coumadin] the “clot time of patient plasma” value ([1]; INR of 2.0, normal (INR 1) 60-75 seconds) was 215 to 240 s, the “clot time of patient plasma” value ([1]; INR of 5.0) was 700 to 800 s and the “clot time of patient plasma” value ([2]; INR of 2, normal 82±6s) was 211 ± 8 s. The “clot time of patient plasma” value ([2]; INR of 4.3) was 616 ± 9 s, the “XpPT clot time of patient plasma (s.e.m.)” value ([2]; INR of 2.0, normal 82.5±0.63 seconds) was 212.6 ± 2.2 s and the “XpPT clot time of patient plasma (s.e.m.)” value ([2]; INR of 4.3) was 610.8 ± 4.2 s.
With “factor XI: human factor XI used for replacement at 1 U/mL” the “difference in clot time without versus with factor XI” value ([3]; 6 pM TF) was 5.7 min, the “difference in clot time without versus with factor XI” value ([3]; 24 pM TF) was 0.467 min and the clot time (hemophilia C blood; XI-deficient blood (patient A) with factor XI replacement 1 U/mL, 25 pmol/L TF) was 3.7 min. The “phlebotomy control clot time, −TF” value (hemophilia C blood; XI-deficient blood (patient A) with factor XI replacement, CTI, no TF) was “(control, −TF > 20.3 min.)”, the clot time (hemophilia C blood; XI-deficient blood (patient B) with factor XI replacement 1 U/mL, 5 pmol/L TF) was 9.7 min and the “clotting time with factor XI and corn trypsin inhibitor in the absence of TF” value (hemophilia C blood; factor XI deficient blood) was over 20 min. The FPA formation rate (hemophilia C blood; factor XI replacement, 5 pM TF) was 7.4 µM/min, the “TAT rate at clot time” value (hemophilia C blood; factor XI replacement, 5 pM TF) was 119 nM/min and the “final level of TAT” value (hemophilia C blood; factor XI replacement, 5 pM TF) was 600 nM. For the same compound, the “osteonectin release by clot time” value (hemophilia C blood; factor XI replacement, 5 pM TF) was 67%, the thrombin generation rate (hemophilia C blood; factor XI replacement, 5 pM TF) was 119 nmol TAT/L/min and the “time after clot time to complete fibrinogen conversion” value (hemophilia C blood; factor XI replacement, 5 pM TF) was 2 to 2.5 min. The “time of maximum factor Va heavy chain” value (hemophilia C blood; factor XI replacement, 5 pM TF) was about 12 min, the “final TAT concentration” value (hemophilia C blood; [4]) was 950 nM and the “maximum rate of FPA release” value (hemophilia C blood; [4]) was 7.3 µM/min. For the same compound, the “rate of thrombin generation” value (hemophilia C blood; [4]) was 85 nmol·L/min, the thrombin generation rate (hemophilia C blood; [4]) was 85 nmol TAT/L/min and the “shortening of clot time by factor XI replacement” value (hemophilia C blood; hemophilia C blood, 5 pM TF) was 6 min.
